From patent publication US20160368853A1, “MONOESTERS, INNER COMPLEX SALTS OR MONOESTER SALTS OF HEXAHYDRO-BETA-ACID AND APPLICATION THEREOF AS ANIMAL FEED ADDITIVES” (GUANGZHOU INSIGHTER BIOTECHNOLOGY CO., LTD., priority 2014, published 2016)

What was measured:
[1] = Thermo stability test of esters and/or salts of hexahydro-β-acid (2% premix, 100° C., HPLC); format: physicochemical; conditions: premix with corncob powder, initial content 2.0%, oven 100° C.
Protocol: Samples (the premixes) were placed in crucibles, and then placed in oven at 100° C. for different durations. Then 1.0 g of each of the samples (three duplicate samples from each sample) and 50 ml of ethanol were added into a conical flask, followed by the addition of 100 μL of concentrated hydrochloric acid. The mixture was then subjected to sonication for 5 minutes, and then filtrated. The filtrate was transferred into a 50 ml volumetric flask, topped up to the final volume with ethanol, and then filtered with a 0.45 μm microporous membrane and subjected to HPLC analysis.

[2] = system: fast-grown yellow feather broilers (female); test: Application effect in broiler feed (30 days feeding trial); format: in vivo; conditions: for Average daily weight gain / Average weight gain / Feed conversion efficiency / Survival rate / Consumption: broilers, 30 days; for Consumption: 100 broilers per group
Excerpt: 500 1-day-aged, healthy, fast-grown yellow feather broilers (female) in the same growing state and similar in weight were randomly divided into five groups according to table 2, 100 broilers in each group. Broilers of each group were fed with different dosages of mono decanoate ester of hexahydro-β-acid or hexahydro-β-acid.

[3] = system: Duroc-Yorkshire-Landrace crossbred lean pigs; test: Application effect in pig feed (14 days feeding trial); format: in vivo; conditions: for Average daily weight gain / Average weight gain / Feed conversion efficiency / Consumption: pigs; for Consumption: 20 pigs
Excerpt: 120 67-day-aged, Duroc-Yorkshire-Landrace crossbred lean pigs similar in weight were randomly divided into six groups, 20 pigs in each group.

[4] = Group 3, 5 mg/kg mixed with feed
[5] = Group 4, 25 mg/kg mixed with feed
[6] = Group 5, 5 mg/kg mixed with feed
[7] = Group 6, 25 mg/kg mixed with feed

For calcium salt of hexahydro-β-acid, the “Content when being heated at 100° C. for 20 h” value (from here on “Content … for 20 h”) [1] was 0.35% and the “Content when being heated at 100° C. for 44 h” value (“Content … for 44 h” for short) [1] was 0.09%.
In the case of “calcium salt of acetate ester of hexahydro-β-acid”, the “Content … for 20 h” value [1] is reported as 1.21% and the “Content … for 44 h” value [1] is reported as 0.31%.
For magnesium salt of hexahydro-β-acid, the “Content … for 20 h” value [1] was 1.49% and the “Content … for 44 h” value [1] was 0.91%.
For “manganese salt of acetate ester of hexahydro-β-acid”, the “Content … for 20 h” value [1] was 0% and the “Content … for 44 h” value [1] was 0%.
In the case of “zinc salt of acetate ester of hexahydro-β-acid”, the “Content … for 20 h” value [1] is reported as 1.64% and the “Content … for 44 h” value [1] is reported as 0.70%.
For ferrous salt of hexahydro-β-acid, the “Content … for 20 h” value [1] was 0.14% and the “Content … for 44 h” value [1] was 0.05%.
For mono acetate ester of hexahydro-β-acid, the “Content … for 20 h” value [1] was 1.52% and the “Content … for 44 h” value [1] was 1.11%.
For “Cobalt Salt of Acetate Ester of hexahydro-β-acid”, the “Content … for 20 h” value [1] was 0.17% and the “Content … for 44 h” value [1] was 0.12%.
In the case of laurate ester of hexahydro-β-acid, the “Content … for 20 h” value [1] is reported as 2.0% and the “Content … for 44 h” value [1] is reported as 1.96%.
For “mono decanoate ester of hexahydro-β-acid”, the “Content … for 20 h” value [1] was 1.93%, the “Content … for 44 h” value [1] was 1.82% and the “feed conversion efficiency of the broilers” value ([2]; 30 days test period, in words) was “significantly improved”. For the same substance, the “weight gain of the broilers” value ([2]; 30 days test period, in words) was “significantly improved”, the “Average daily weight gain” value ([2]; 2 ppm mixed with feed) was 25.6 g and the Average weight gain ([2]; 2 ppm mixed with feed) was 768 g. The Feed conversion efficiency ([2]; 2 ppm mixed with feed) was 1.926, the Survival rate ([2]; 2 ppm mixed with feed) was 100% and the Consumption ([2]; 2 ppm mixed with feed) was 147.94 kg. For the same substance, the “Average daily weight gain” value ([2]; 20 ppm mixed with feed) was 26.57 g, the Average weight gain ([2]; 20 ppm mixed with feed) was 797 g and the Feed conversion efficiency ([2]; 20 ppm mixed with feed) was 1.837. The Survival rate ([2]; 20 ppm mixed with feed) was 100%, the Consumption ([2]; 20 ppm mixed with feed) was 146.42 kg and the “improvement of the productivity of the broilers” value ([2]; compared with hexahydro-β-acid in the same dosage) was “more significant than that of the broilers fed with hexahydro-β-acid in the same dosage”.
In the case of zinc salt of hexahydro-β-acid, the “Content … for 20 h” value [1] is reported as 0.95% and the “Content … for 44 h” value [1] is reported as 0.52%.
In the case of hexahydro-β-acid [reference compound], the “Content … for 20 h” value [1] is reported as 0.06%, the “Content … for 44 h” value [1] is reported as 0% and the “Average daily weight gain” value ([2]; 2 ppm mixed with feed) is reported as 24.83 g. The Average weight gain ([2]; 2 ppm mixed with feed) was 745 g, the Feed conversion efficiency ([2]; 2 ppm mixed with feed) was 1.983 and the Survival rate ([2]; 2 ppm mixed with feed) was 100%. The Consumption ([2]; 2 ppm mixed with feed) was 147.76 kg, the “Average daily weight gain” value ([2]; 20 ppm mixed with feed) was 25.26 g and the Average weight gain ([2]; 20 ppm mixed with feed) was 758 g. For the same substance, the Feed conversion efficiency ([2]; 20 ppm mixed with feed) was 1.968, the Survival rate ([2]; 20 ppm mixed with feed) was 100% and the Consumption ([2]; 20 ppm mixed with feed) was 149.18 kg.
In the case of “magnesium salt of acetate ester of hexahydro-β-acid”, the “Content … for 20 h” value [1] is reported as 1.42% and the “Content … for 44 h” value [1] is reported as 0.7%.
In the case of cetylate ester of hexahydro-β-acid, the “Content … for 20 h” value [1] is reported as 1.98%, the “Content … for 44 h” value [1] is reported as 1.93% and the “feed conversion efficiency of the pigs” value ([3]; in words) is reported as “significantly improved”. The “weight gain of the pigs” value ([3]; in words) was “significantly improved”, the “Average daily weight gain” value [3, 4] was 0.512 kg/day and the Average weight gain [3, 4] was 7.18 kg. For the same substance, the Feed conversion efficiency [3, 4] was 2.078, the Consumption [3, 4] was 298.4 kg and the “Average daily weight gain” value [3, 5] was 0.570 kg/day. It also gave an Average weight gain [3, 5] of 7.985 kg, a Feed conversion efficiency [3, 5] of 1.706 and a Consumption [3, 5] of 272.5 kg. The “Average daily weight gain” value [3, 6] was 0.508 kg/day, the Average weight gain [3, 6] was 7.11 kg and the Feed conversion efficiency [3, 6] was 1.949. The Consumption [3, 6] was 277.2 kg, the “Average daily weight gain” value [3, 7] was 0.580 kg/day and the Average weight gain [3, 7] was 8.12 kg. For the same substance, the Feed conversion efficiency [3, 7] was 1.690 and the Consumption [3, 7] was 274.5 kg.
With “Ferrous Salt of Acetate Ester of hexahydro-β-acid” the “Content … for 20 h” value [1] was 1.69% and the “Content … for 44 h” value [1] was 1.63%.
In the case of “copper salt of acetate ester of hexahydro-β-acid”, the “Content … for 20 h” value [1] is reported as 1.50% and the “Content … for 44 h” value [1] is reported as 1.28%.
